Results as given in paper PMC5762315, “Inhibition of polo-like kinase 4 (PLK4): a new therapeutic option for rhabdoid tumors and pediatric medulloblastoma” (Oncotarget, 2017).
Values joined by “and” are separate entries in the source; they are usually repeats but may differ in a detail not shown here. Equal values may be shown once.

Legend:
various kinases [1] = target: various kinases (Homo sapiens, UniProt P00519, F317L); assay: biochemical; format: biochemical; settings: ABL1 F317L
various kinases [2] = target: various kinases (Homo sapiens, UniProt P04626); assay: biochemical; format: biochemical; settings: ERBB2 (HER2)
various kinases [3] = target: various kinases (Homo sapiens, UniProt P07949); assay: biochemical; format: biochemical; settings: kinase RET; ZLYTE
various kinases [4] = target: various kinases (Homo sapiens, UniProt P36896); assay: biochemical; format: biochemical; settings: ACVR1B (ALK4)
various kinases [5] = target: various kinases (Homo sapiens, UniProt P54764); assay: biochemical; format: biochemical; settings: EPHA4
various kinases [6] = target: various kinases (Homo sapiens, UniProt Q06187); assay: biochemical; format: biochemical; settings: BTK
various kinases [7] = target: T1, various kinases (Homo sapiens, UniProt Q13237); assay: biochemical; format: biochemical; settings: kinase PRKG2 (PKG2); ZLYTE
T1 sequence (Q13237 1-762): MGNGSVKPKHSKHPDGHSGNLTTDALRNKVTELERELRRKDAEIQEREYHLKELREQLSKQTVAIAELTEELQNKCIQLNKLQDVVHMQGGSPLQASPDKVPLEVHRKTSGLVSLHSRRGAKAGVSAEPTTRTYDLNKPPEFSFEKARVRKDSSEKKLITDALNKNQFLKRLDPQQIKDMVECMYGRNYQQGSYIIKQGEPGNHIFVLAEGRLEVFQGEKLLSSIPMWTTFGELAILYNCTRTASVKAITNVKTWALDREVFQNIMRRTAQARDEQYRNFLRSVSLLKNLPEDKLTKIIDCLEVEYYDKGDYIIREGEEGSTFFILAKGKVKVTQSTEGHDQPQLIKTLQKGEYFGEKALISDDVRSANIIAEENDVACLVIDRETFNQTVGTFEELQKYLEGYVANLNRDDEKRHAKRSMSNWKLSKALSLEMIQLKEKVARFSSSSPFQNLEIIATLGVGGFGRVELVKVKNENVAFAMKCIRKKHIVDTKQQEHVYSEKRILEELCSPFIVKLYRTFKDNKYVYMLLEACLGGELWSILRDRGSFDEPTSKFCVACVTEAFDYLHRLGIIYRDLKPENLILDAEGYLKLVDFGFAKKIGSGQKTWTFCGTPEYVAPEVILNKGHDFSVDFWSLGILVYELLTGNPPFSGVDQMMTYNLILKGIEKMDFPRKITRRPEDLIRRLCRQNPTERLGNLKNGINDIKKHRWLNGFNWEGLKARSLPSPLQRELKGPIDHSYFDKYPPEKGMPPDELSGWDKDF

various kinases [8] = target: various kinases (Homo sapiens, UniProt Q13557); assay: biochemical; format: biochemical; settings: CAMK2D (CaMKII delta)
various kinases [9] = target: various kinases (Homo sapiens, UniProt Q52WX2); assay: biochemical; format: biochemical; settings: kinase SBK1; ZLYTE
various kinases [10] = target: various kinases (Homo sapiens, UniProt Q8NE63); assay: biochemical; format: biochemical; settings: HIPK4
various kinases [11] = target: various kinases (Homo sapiens, UniProt Q9BUB5); assay: biochemical; format: biochemical; settings: MKNK1 (MNK1)
various kinases [12] = target: various kinases (Homo sapiens, UniProt Q9P1W9); assay: biochemical; format: biochemical; settings: PIM2
various kinases [13] = target: various kinases (Homo sapiens, UniProt Q9Y6M4); assay: biochemical; format: biochemical; settings: CSNK1G3 (CK1 gamma 3)
BT-12 AT/RT cells = assay: Confluency assay (IncuCyte ZOOM), BT-12; format: cell-based, human; settings: increasing concentrations starting at 31.25nM, 48 hours, p-value=0.001
Protocol: For further evaluation of the effect of the PLK4 inhibitor over tumor cell proliferation, confluency was measured over a 48 hour period. MON, BT-12, G401 and DAOY cells were plated in 96-well plates with a density of 6 x 10^4 per well. […] Confluency was monitored for 48 hours by taking phase contrast images every 2 hours and measured using an IncuCyte ZOOM system (Essen BioScience, USA). Experiments were performed in triplicates.

DAOY cells = assay: Colony formation assay, DAOY; format: cell-based, human; settings: 50nM
Protocol: For proliferation assay DAOY was plated with 5 x 10^4 cells per well and D283 was plated with 5 x 10^5 cells per well.

[14] = test system: G401, BT-12, BT-16, DAOY and D283 cell lines; assay: Immunofluorescence for gamma-tubulin (centriole number), other RT and MB lines; format: cell-based, human
Protocol: The cells were then blocked in blocking buffer (5% BSA (Jackson Immuno Research Laboratories Inc., USA) in PBST) for 1 hour at RT. The primary antibody ([…] 1:500, Sigma, USA) diluted in 1% BSA in PBST was then added and incubated at 4°C overnight. Then, the cells were washed with 1X PBS thrice. Secondary antibody (Anti-Rabbit IgG (H+L) F (ab’) 2, 1:500, Sigma, USA) diluted in 1% BSA in PBST was added and incubated at RT for 2 hours. Three time washes with 1X PBS were performed. Then, 1mL of DAPI (Thermo Fisher Scientific, USA) in PBS (0.5μl of DAPI in 10 ml PBS) was added to the cells and incubated for 10 min at RT. Finally, 3 time washes with 1X PBS were performed and slides were mounted using Mounting Medium (Thermo Fisher Scientific, USA).

[15] = Brain to plasma ratio (B:P), LC-MS/MS; format: in vivo, male CD-1 mice; settings: male, CD-1, mouse, po, 7.5 mg/kg, 4 hours post-dose
Protocol: Male CD-1 mice weighing between 20 and 40 grams were fitted with jugular vein cannulas as appropriate and fasted overnight until 4 hours post-dose. Double route of administration (oral and IV) were tested, with a single dose concentration of 7.5mg/kg. Plasma and brain were sampled at 6 time-points, starting at 30 minutes (n=3 animals/time-point). Brain was extracted at the same plasma sampling time-point from each animal. Both plasma and brain samples were deproteinated. Brain samples were weighted, homogenized and CFI-400945 was extracted. […] The dosing solution was normalized in a matched matrix (mouse plasma) and analyzed in triplicate in the same analytical batch as the incurred samples (Absorption Systems - Exton, PA).

[16] = set-up: method as in PMID 28057846; settings: adults with advanced solid tumors; cited from earlier work

Chain of various kinases (Homo sapiens, UniProt Q52WX2) (Q52WX2 whole entry): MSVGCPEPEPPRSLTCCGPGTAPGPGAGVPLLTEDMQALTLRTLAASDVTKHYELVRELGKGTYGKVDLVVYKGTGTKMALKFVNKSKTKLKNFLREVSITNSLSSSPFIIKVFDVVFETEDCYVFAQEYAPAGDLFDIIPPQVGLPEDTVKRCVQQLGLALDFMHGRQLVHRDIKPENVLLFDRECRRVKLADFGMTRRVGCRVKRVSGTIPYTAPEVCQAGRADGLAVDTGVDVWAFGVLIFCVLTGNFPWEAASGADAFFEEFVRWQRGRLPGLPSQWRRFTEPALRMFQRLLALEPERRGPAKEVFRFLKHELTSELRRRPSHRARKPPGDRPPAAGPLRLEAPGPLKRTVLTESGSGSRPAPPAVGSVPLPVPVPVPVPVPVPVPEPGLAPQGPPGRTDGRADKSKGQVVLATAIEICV
Chain of various kinases (Homo sapiens, UniProt P07949) (P07949 29-1114): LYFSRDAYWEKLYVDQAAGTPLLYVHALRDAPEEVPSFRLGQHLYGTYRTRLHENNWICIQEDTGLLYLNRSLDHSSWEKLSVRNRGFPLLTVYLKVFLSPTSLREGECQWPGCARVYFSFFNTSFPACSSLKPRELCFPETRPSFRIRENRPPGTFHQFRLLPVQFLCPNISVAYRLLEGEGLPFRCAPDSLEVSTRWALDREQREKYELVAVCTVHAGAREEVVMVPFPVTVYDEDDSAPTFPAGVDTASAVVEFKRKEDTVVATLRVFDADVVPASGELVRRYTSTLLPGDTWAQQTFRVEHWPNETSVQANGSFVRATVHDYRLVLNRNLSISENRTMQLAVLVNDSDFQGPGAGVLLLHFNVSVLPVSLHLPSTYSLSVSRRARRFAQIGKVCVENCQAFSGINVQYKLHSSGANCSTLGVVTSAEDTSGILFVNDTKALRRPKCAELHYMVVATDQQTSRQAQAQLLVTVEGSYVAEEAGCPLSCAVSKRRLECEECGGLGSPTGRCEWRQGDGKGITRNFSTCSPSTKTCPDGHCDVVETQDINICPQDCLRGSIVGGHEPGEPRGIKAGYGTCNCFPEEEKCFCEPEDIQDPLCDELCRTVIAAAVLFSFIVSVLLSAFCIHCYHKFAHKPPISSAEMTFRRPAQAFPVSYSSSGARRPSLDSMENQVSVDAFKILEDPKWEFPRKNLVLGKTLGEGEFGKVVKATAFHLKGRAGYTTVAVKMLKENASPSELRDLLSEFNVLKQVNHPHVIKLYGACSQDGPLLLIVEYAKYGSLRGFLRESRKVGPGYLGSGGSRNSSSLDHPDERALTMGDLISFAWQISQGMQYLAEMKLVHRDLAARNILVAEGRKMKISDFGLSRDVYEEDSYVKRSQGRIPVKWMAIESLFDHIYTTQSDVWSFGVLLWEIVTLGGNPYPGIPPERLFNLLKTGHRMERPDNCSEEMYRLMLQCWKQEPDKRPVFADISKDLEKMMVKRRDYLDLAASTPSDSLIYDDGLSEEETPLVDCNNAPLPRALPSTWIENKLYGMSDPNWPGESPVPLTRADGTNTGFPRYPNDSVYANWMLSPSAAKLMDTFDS
Chain of various kinases (Homo sapiens, UniProt Q06187) (Q06187 whole entry): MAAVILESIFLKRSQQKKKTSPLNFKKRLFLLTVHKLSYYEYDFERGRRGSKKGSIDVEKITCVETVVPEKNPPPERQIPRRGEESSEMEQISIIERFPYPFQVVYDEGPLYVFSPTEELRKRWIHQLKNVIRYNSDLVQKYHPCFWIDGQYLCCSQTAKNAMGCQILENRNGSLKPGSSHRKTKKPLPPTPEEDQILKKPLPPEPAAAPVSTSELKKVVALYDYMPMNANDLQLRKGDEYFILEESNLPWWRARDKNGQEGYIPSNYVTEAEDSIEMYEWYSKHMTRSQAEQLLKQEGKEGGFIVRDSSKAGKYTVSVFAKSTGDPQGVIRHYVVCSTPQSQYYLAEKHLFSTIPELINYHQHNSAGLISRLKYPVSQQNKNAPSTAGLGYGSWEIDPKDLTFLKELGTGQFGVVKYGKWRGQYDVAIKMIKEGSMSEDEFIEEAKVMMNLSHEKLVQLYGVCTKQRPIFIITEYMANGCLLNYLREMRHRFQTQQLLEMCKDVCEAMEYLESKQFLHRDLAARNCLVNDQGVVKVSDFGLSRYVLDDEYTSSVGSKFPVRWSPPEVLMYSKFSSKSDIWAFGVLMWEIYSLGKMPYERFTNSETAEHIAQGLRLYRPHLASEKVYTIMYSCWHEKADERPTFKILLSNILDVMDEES
Chain of various kinases (Homo sapiens, UniProt Q8NE63) (Q8NE63 whole entry): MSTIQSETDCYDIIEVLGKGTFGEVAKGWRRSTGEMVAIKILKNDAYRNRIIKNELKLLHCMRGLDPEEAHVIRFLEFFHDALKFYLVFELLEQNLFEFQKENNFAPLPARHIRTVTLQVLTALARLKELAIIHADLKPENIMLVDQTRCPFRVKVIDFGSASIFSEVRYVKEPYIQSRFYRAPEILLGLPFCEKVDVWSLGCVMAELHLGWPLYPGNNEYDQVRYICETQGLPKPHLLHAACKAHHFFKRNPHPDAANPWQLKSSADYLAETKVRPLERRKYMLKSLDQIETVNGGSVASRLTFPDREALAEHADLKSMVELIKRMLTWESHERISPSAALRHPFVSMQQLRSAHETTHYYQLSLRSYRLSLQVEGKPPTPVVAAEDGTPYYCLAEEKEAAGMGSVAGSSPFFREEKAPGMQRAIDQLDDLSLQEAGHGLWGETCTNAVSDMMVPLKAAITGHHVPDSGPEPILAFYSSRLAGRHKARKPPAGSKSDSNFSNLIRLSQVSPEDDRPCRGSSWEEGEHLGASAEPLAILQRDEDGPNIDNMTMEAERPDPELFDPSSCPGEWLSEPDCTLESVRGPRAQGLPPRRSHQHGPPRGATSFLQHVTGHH
Chain of various kinases (Homo sapiens, UniProt Q13557) (Q13557 whole entry): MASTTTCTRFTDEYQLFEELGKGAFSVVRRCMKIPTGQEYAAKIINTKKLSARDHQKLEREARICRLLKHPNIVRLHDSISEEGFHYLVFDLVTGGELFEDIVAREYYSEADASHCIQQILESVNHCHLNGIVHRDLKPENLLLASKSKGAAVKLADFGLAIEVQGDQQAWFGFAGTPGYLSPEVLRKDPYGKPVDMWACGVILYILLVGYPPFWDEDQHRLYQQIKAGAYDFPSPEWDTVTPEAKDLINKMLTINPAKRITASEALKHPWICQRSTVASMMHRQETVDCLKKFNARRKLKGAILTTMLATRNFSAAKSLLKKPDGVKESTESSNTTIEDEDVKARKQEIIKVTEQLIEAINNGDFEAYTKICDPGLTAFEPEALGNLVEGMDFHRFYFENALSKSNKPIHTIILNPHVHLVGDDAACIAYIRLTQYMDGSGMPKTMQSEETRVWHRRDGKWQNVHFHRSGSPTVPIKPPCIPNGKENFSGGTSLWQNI
Chain of various kinases (Homo sapiens, UniProt P36896) (P36896 24-505): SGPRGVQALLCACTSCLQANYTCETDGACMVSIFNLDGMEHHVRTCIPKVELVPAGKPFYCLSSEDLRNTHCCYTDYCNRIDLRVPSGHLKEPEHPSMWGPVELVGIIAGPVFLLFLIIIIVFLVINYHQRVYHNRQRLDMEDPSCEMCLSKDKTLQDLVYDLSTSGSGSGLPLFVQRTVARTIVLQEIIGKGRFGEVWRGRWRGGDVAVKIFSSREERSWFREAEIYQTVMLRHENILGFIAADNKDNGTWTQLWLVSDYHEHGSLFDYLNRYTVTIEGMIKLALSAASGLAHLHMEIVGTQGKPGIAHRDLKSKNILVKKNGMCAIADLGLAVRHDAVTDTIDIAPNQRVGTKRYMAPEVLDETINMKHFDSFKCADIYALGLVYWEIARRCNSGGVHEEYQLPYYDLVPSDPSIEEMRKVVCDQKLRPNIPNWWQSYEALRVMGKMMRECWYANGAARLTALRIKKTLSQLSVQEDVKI
Chain of various kinases (Homo sapiens, UniProt P54764) (P54764 20-986): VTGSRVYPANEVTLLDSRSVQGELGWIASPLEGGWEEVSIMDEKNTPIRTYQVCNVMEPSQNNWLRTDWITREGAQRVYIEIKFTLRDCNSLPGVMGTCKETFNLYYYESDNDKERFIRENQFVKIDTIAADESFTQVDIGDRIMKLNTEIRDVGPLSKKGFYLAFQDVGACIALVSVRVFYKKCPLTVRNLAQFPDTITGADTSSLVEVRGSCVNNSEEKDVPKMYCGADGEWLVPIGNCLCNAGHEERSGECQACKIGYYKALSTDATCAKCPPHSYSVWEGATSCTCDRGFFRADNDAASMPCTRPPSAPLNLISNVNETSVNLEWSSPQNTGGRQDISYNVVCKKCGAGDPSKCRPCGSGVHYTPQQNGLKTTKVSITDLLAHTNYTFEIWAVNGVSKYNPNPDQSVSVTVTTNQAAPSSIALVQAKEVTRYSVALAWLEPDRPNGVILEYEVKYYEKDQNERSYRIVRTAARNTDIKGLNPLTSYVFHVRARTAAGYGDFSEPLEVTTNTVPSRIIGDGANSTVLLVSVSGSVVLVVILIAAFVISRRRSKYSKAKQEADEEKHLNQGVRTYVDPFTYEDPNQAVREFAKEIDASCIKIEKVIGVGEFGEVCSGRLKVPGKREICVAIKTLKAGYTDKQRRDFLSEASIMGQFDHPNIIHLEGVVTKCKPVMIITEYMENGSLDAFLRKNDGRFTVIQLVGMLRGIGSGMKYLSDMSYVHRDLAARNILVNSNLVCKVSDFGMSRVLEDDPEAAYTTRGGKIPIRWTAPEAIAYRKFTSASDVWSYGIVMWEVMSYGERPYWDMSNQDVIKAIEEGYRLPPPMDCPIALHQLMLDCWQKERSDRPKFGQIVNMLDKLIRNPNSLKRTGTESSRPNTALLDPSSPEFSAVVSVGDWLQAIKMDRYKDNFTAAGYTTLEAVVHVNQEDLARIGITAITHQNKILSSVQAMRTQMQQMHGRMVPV
Chain of various kinases (Homo sapiens, UniProt Q9P1W9) (Q9P1W9 whole entry): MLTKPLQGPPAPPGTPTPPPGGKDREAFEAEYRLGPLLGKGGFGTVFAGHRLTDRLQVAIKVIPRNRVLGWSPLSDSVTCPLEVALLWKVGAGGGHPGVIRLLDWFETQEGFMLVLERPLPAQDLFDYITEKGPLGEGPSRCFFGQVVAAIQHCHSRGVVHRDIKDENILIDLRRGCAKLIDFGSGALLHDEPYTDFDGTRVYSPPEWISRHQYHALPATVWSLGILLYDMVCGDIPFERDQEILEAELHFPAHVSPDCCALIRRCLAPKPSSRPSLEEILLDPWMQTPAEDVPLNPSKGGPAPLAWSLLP

In the case of COc1ccc2c(c1)[C@]1(C[C@H]1c1ccc3c(/C=C/c4ccc(CN5C[C@@H](C)O[C@@H](C)C5)cc4)n[nH]c3c1)C(=O)N2 [CFI-400945], the “% Inhibition” value (various kinases [1]) is reported as 13% and 16%, the “% Inhibition” value (various kinases [2]) is reported as -2% and 1% and the “% Inhibition Average” value (various kinases [3]) is reported as 16%. The “% Inhibition Duplicate #1” value (various kinases [3]) was 14%, the “% Inhibition Duplicate #2” value (various kinases [3]) was 18% and the “% Inhibition” value (various kinases [4]) was -1% and -8%. The “% Inhibition” value (various kinases [5]) was 13% and 8%, the “% Inhibition” value (various kinases [6]) was 6% and 3% and the “% Inhibition Average” value (various kinases [7]) was 1%. The “% Inhibition Duplicate #1” value (various kinases [7]) was 2%, the “% Inhibition Duplicate #2” value (various kinases [7]) was 0% and the “% Inhibition” value (various kinases [8]) was 28% and 37%. The “% Inhibition Average” value (various kinases [9]) was 0%, the “% Inhibition Duplicate #1” value (various kinases [9]) was -1% and the “% Inhibition Duplicate #2” value (various kinases [9]) was 2%. The “% Inhibition” value (various kinases [10]) was -1% and 2%, the “% Inhibition” value (various kinases [11]) was 6% and 1% and the “% Inhibition” value (various kinases [12]) was 8% and 9%. For the same compound, the “% Inhibition” value (various kinases [13]) was 2% and -1%, the “FC, delay in reaching confluency” value (BT-12 AT/RT cells) was 1.89 and the colony formation (DAOY cells) was “Complete inhibition”. The “centrioles' number” value ([14]; 100nM) was “increase”, the “centrioles' number” value ([14]; 500nM) was “significant decrease” and the Kp at 4 h ([15]; brain / plasma, fasted male CD-1 mice, triplicates, read-out: Average Raw B:P Ratio) was roughly 0.08. The concentration at 4 h ([15]; plasma, plasma density assumed 1 g/mL, individual mice #355, 356, 357, read-out: Plasma Conc.) was 498 ng/g and the “tolerability, preliminary phase I results” value [16] was “well tolerated at doses up to 72 mg”.
